Laboratory results as given in patent US9387204B2, “Fused bicyclic imidazoles” (BAYER INTELLECTUAL PROPERTY GmbH, priority 2007, dated 2016).

Test system: A549 cells
Assay: Cellular proliferation/cytotoxicity assay (Alamar Blue), A549 cells
Conditions: Homo sapiens, A549, 72 h, read-out: Anti-proliferative/Cytotoxic activity (A549 cells)
Experimental: The anti-proliferative activity of the compounds as described herein, is evaluated using the OvCAR3, HCT116 and A549 cell lines and the Alamar Blue (Resazurin) cell viability assay (O'Brien et al. Eur J Biochem 267, 5421-5426, 2000). Resazurin is reduced to the fluorescent resorufin by cellular dehydrogenase activity, correlating with viable, proliferating cells. Test compounds are dissolved as 10 mM solutions in DMSO and subsequently diluted. Cells like HCT116 or A549 cells were seeded into 96 well flat bottom plates at a density of 10000 cells/well (OvCAR3 cells), 1000 cells/well (HCT116 cells) or 2000 cells/well (A549 cells) in a volume of 200 μl/well. 24 hours after seeding, 1 μl each of the compound dilutions are added into each well of the 96 well plates. Each compound dilution is tested as at least as duplicates. Wells containing untreated control cells were filled with 200 μl DMEM (Dulbecco's Modified Eagle Medium) containing 0.5 vol % v:v DMSO. The cells are then incubated with the substances for 72 h at 37° C. in a humidified atmosphere containing 5 vol % CO2. To determine the viability of the cells, 20 μl of a Resazurin solution (90 mg/l) are added. After 4 h incubation at 37° C., the fluorescence is measured by extinction at ? =544 nm and an emission of ? =590 nm (Wallac Victor2; Perkin Elmer, USA). For the calculation of the cell viability, the emission value from untreated cells is set as 100% viability and the fluorescence intensity of treated cells are set in relation to the values of untreated cells. Viabilities are expressed as % values. The corresponding IC50 values of the compounds for cytotoxic activity are determined from the concentration-effect curves by means of non-linear regression. The analysis of the data is performed using a biostatistical program (Graph Pad Prism, USA).

| SMILES | IC50 |
| --- | --- |
| Clc1ccn2c(-c3ccccc3)c(-c3ccc(CN4CCC(c5nnc(-c6ccccc6)[nH]5)CC4)cc3)nc2c1 [Example 120, 7-chloro-3-phenyl-2-(4-{[4-(5-phenyl-4H-1,2,4-triazol-3-yl)piperidin-1-yl]methyl}phenyl)imidazo[1,2-a]pyridine] | < 10 µM |
| c1ccc(-c2c(-c3ccc(CN4CCC(c5cc(-c6ccccn6)n[nH]5)CC4)cc3)nc3ncccn23)cc1 [Example 30, 3-phenyl-2-(4-{[4-(3-pyridin-2-yl-pyrazol-5-yl)piperidin-1-yl]methyl}phenyl)imidazo[1,2-a]pyrimidine] | > 10 µM |
| COC(O)c1cn2c(-c3ccccc3)c(-c3ccc(CN4CCC(c5n[nH]c(-c6ccccn6)n5)CC4)cc3)nc2s1 (stereo not shown) [Example 126, methoxy[5-phenyl-6-(4-{[4-(5-pyridin-2-yl-1H-1,2,4-triazol-3-yl)piperidin-1-yl]methyl}phenyl)imidazo[2,1-b][1,3]thiazol-2-yl]methanol] | < 10 µM |
| Fc1ccc(-c2c(-c3ccc(CN4CCC(c5n[nH]c(-c6ccccn6)n5)CC4)cc3)nc3ncccn23)cc1 [Example 18, 3-(4-fluorophenyl)-2-(4-{[4-(5-pyridin-2-yl-1,2,4-triazol-3-yl)piperidin-1-yl]methyl}phenyl)imidazo[1,2-a]pyrimidine] | > 10 µM |
| CCc1nn2c(-c3ccccc3)c(-c3ccc(CN4CCC(c5nnc(-c6ccccn6)[nH]5)CC4)cc3)nc2s1 [Example 51, 2-ethyl-5-phenyl-6-(4-{[4-(5-pyridin-2-yl-4H-1,2,4-triazol-3-yl)piperidin-1-yl]methyl}phenyl)imidazo[2,1-b][1,3,4]thiadiazole] | < 10 µM |
| Cc1cccc(-c2nnc(C3CCN(Cc4ccc(-c5nc6ccc(C)nn6c5-c5ccccc5)cc4)CC3)[nH]2)n1 [Example 69, 6-methyl-2-[4-({4-[5-(6-methylpyridin-2-yl)-4H-1,2,4-triazol-3-yl]piperidin-1-yl}methyl)phenyl]-3-phenylimidazo[1,2-b]pyridazine] | < 10 µM |
| c1ccc(-c2nnc(C3CCN(Cc4ccc(-c5nc6ncccn6c5-c5ccccc5)cc4)CC3)[nH]2)cc1 [Example 121, 3-phenyl-2-(4-{[4-(5-phenyl-4H-1,2,4-triazol-3-yl)piperidin-1-yl]methyl}phenyl)imidazo[1,2-a]pyrimidine] | < 10 µM |
| Clc1ccn2c(-c3ccccc3)c(-c3ccc(CN4CCC(c5nnc(-c6cccs6)[nH]5)CC4)cc3)nc2c1 [Example 103, 7-chloro-3-phenyl-2-[4-({4-[5-(2-thienyl)-4H-1,2,4-triazol-3-yl]piperidin-1-yl}methyl)phenyl]imidazo[1,2-a]pyridine] | < 10 µM |
| c1ccc(-c2nc(C3CCN(Cc4ccc(-c5nc6ccccn6c5-c5ccncc5)cc4)CC3)n[nH]2)nc1 [Example 16, 3-pyridin-4-yl-2-(4-{[4-(5-pyridin-2-yl-1,2,4-triazol-3-yl)piperidin-1-yl]methyl}phenyl)imidazo[1,2-a]pyridine] | > 10 µM |
| COc1nccn2c(-c3ccccc3)c(-c3ccc(CN4CCC(c5n[nH]c(-c6ccccn6)n5)CC4)cc3)nc12 [Example 27, 8-methoxy-3-phenyl-2-(4-{[4-(5-pyridin-2-yl-1,2,4-triazol-3-yl)piperidin-1-yl]methyl}phenyl)imidazo[1,2-a]pyrazine] | < 10 µM |
| Cc1cccc(-c2nnc(C3CCN(Cc4ccc(-c5nc6ncccn6c5-c5ccccc5)cc4)CC3)[nH]2)n1 [Example 63, 2-[4-({4-[5-(6-methylpyridin-2-yl)-4H-1,2,4-triazol-3-yl]piperidin-1-yl}methyl)phenyl]-3-phenylimidazo[1,2-a]pyrimidine] | > 10 µM |
| Fc1ccc2nc(-c3ccc(CN4CCC(c5n[nH]c(-c6ccccn6)n5)CC4)cc3)c(-c3ccccc3)n2c1 [Example 22, 6-fluoro-3-phenyl-2-(4-{[4-(5-pyridin-2-yl-1,2,4-triazol-3-yl)piperidin-1-yl]methyl}phenyl)imidazo[1,2-a]pyridine] | > 10 µM |
| Fc1cccc(-c2c(-c3ccc(CN4CCC(c5n[nH]c(-c6ccccn6)n5)CC4)cc3)nc3ccccn23)c1 [Example 14, 3-(3-fluorophenyl)-2-(4-{[4-(5-pyridin-2-yl-1,2,4-triazol-3-yl)piperidin-1-yl]methyl}phenyl)imidazo[1,2-a]pyridine] | < 10 µM |
| Brc1ccc2nc(-c3ccc(CN4CCC(c5n[nH]c(-c6ccccn6)n5)CC4)cc3)c(-c3ccccc3)n2c1 [Example 6, 6-bromo-3-phenyl-2-(4-{[4-(5-pyridin-2-yl-1,2,4-triazol-3-yl)piperidin-1-yl]methyl}phenyl)imidazo[1,2-a]pyridine] | < 10 µM |
| Cc1cccc(-c2nnc(C3CCN(Cc4ccc(-c5nc6ccccn6c5-c5ccccc5)cc4)CC3)[nH]2)n1 [Example 64, 2-[4-({4-[5-(6-methylpyridin-2-yl)-4H-1,2,4-triazol-3-yl]piperidin-1-yl}methyl)phenyl]-3-phenylimidazo[1,2-a]pyridine] | < 10 µM |
| c1ccc(-c2c(-c3ccc(CN4CCC(c5n[nH]c(-c6ccccn6)n5)CC4)cc3)nc3ncccn23)cc1 [Example 1, 3-phenyl-2-(4-{[4-(5-pyridin-2-yl-1,2,4-triazol-3-yl)piperidin-1-yl]methyl}phenyl)imidazo[1,2-a]pyrimidine] | > 10 µM |

Same assay, conditions: read-out: Anti-proliferative/Cytotoxic activity (A549 cells); A549 cells, 72 h, Alamar Blue (Resazurin)

| SMILES | IC50 |
| --- | --- |
| Cc1ccc(-c2nnc(C3CCN(Cc4ccc(-c5nc6sccn6c5-c5ccccc5)cc4)CC3)[nH]2)nc1 [Example 73, ′6-[4-({4-[5-(5-methylpyridin-2-yl)-4H-1,2,4-triazol-3-yl]piperidin-1-yl}methyl)phenyl]-5-phenylimidazo[2,1-b][1,3]thiazole] | < 10 µM |
| Cc1cccc(-c2nnc(C3CCN(Cc4ccc(-c5nc6scnn6c5-c5ccccc5)cc4)CC3)[nH]2)n1 [Example 67, ′6-[4-({4-[5-(6-methylpyridin-2-yl)-4H-1,2,4-triazol-3-yl]piperidin-1-yl}methyl)phenyl]-5-phenylimidazo[2,1-b][1,3,4]thiadiazole] | < 10 µM |
| c1ccc(-c2c(-c3ccc(CN4CCC(c5cc(-c6ccccn6)n[nH]5)CC4)cc3)nc3ccccn23)cc1 [Example 111, ′3-phenyl-2-(4-{[4-(3-pyridin-2-yl-1H-pyrazol-5-yl)piperidin-1-yl]methyl}phenyl)imidazo[1,2-a]pyridine] | < 10 µM |
| c1ccc(-c2c(-c3ccc(CN4CCC(c5nnc(-c6nccs6)[nH]5)CC4)cc3)nc3ccccn23)cc1 [Example 85, ′3-phenyl-2-[4-({4-[5-(1,3-thiazol-2-yl)-4H-1,2,4-triazol-3-yl]piperidin-1-yl}methyl)phenyl]imidazo[1,2-a]pyridine] | > 10 µM |
| c1ccc(-c2c(-c3ccc(CN4CCC(c5nnc(-c6cccs6)[nH]5)CC4)cc3)nc3sccn23)cc1 [Example 100, ′5-phenyl-6-[4-({4-[5-(2-thienyl)-4H-1,2,4-triazol-3-yl]piperidin-1-yl}methyl)phenyl]imidazo[2,1-b][1,3]thiazole] | < 10 µM |
| c1ccc(-c2c(-c3ccc(CN4CCC(c5nnc(-c6ccncc6)[nH]5)CC4)cc3)nc3ccccn23)cc1 [Example 58, ′3-phenyl-2-(4-{[4-(5-pyridin-4-yl-4H-1,2,4-triazol-3-yl)piperidin-1-yl]methyl}phenyl)imidazo[1,2-a]pyridine] | < 10 µM |
| c1ccc(-c2c(-c3ccc(CN4CCC(c5cc(-c6ccccn6)[nH]n5)CC4)cc3)nc3sccn23)cc1 [Example 113, ′5-phenyl-6-(4-{[4-(5-pyridin-2-yl-1H-pyrazol-3-yl)piperidin-1-yl]methyl}phenyl)imidazo[2,1-b][1,3]thiazole] | < 10 µM |
| Cc1ccc(-c2nnc(C3CCN(Cc4ccc(-c5nc6scnn6c5-c5ccccc5)cc4)CC3)[nH]2)nc1 [Example 74, ′6-[4-({4-[5-(5-methylpyridin-2-yl)-4H-1,2,4-triazol-3-yl]piperidin-1-yl}methyl)phenyl]-5-phenylimidazo[2,1-b][1,3,4]thiadiazole] | < 10 µM |
| c1ccc(-c2c(-c3ccc(CN4CCC(c5nnc(-c6cccs6)[nH]5)CC4)cc3)nc3scnn23)cc1 [Example 101, ′5-phenyl-6-[4-({4-[5-(2-thienyl)-4H-1,2,4-triazol-3-yl]piperidin-1-yl}methyl)phenyl]imidazo[2,1-b][1,3,4]thiadiazole] | < 10 µM |
| c1ccc(-c2c(-c3ccc(CN4CCC(c5nnc(-c6cccs6)[nH]5)CC4)cc3)nc3ccccn23)cc1 [Example 97, ′3-phenyl-2-[4-({4-[5-(2-thienyl)-4H-1,2,4-triazol-3-yl]piperidin-1-yl}methyl)phenyl]imidazo[1,2-a]pyridine] | < 10 µM |
| c1ccc(-c2c(-c3ccc(CN4CCC(c5nnc(-c6ncccn6)[nH]5)CC4)cc3)nc3sccn23)cc1 [Example 81, ′5-phenyl-6-(4-{[4-(5-pyrimidin-2-yl-4H-1,2,4-triazol-3-yl)piperidin-1-yl]methyl}phenyl)imidazo[2,1-b][1,3]thiazole] | > 10 µM |
| N#Cc1cccn2c(-c3ccccc3)c(-c3ccc(CN4CCC(c5nnc(-c6nccs6)[nH]5)CC4)cc3)nc12 [Example 86, ′3-phenyl-2-[4-({4-[5-(1,3-thiazol-2-yl)-4H-1,2,4-triazol-3-yl]piperidin-1-yl}methyl)phenyl]imidazo[1,2-a]pyridine-8-carbonitrile] | > 10 µM |
| c1ccc(-c2c(-c3ccc(CN4CCC(c5nnc(-c6ccco6)[nH]5)CC4)cc3)nc3ncccn23)cc1 [Example 95, ′2-[4-({4-[5-(2-furyl)-4H-1,2,4-triazol-3-yl]piperidin-1-yl}methyl)phenyl]-3-phenylimidazo[1,2-a]pyrimidine] | > 10 µM |
| c1ccc(-c2c(-c3ccc(CN4CCC(c5nnc(-c6ccc[nH]6)[nH]5)CC4)cc3)nc3sccn23)cc1 [Example 109, ′5-phenyl-6-[4-({4-[5-(1H-pyrrol-2-yl)-4H-1,2,4-triazol-3-yl]piperidin-1-yl}methyl)phenyl]imidazo[2,1-b][1,3]thiazole] | < 10 µM |
| c1ccc(-c2c(-c3ccc(CN4CCC(c5n[nH]c(-c6nccs6)n5)CC4)cc3)nc3scnn23)cc1 [Example 88, ′5-phenyl-6-[4-({4-[5-(1,3-thiazol-2-yl)-1H-1,2,4-triazol-3-yl]piperidin-1-yl}methyl)phenyl]imidazo[2,1-b][1,3,4]thiadiazole] | < 10 µM |
